This assay deals with HEK293-STF3A cells. Kind of assay: STF3A assay (luciferase reporter). The format is cell-based, Human. The note with it: Homo sapiens, 24 h, 1 day of treatment. The essentials:
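HEK293 cells carrying the STF reporter and expressing Wnt3A, seeded 2×10^4 per well overnight, then treated 1 day with compound at final 50 μM to 1.5 nM. Luciferase activity read by luminescence after Steady-Glo reagent, 10 min at room temperature.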
Background: Reporter assays use an easily measured gene product as a stand-in for the process of interest.

Regarding `Cc1cc2n(n1)CCN2C(=O)CCC(=O)Nc1cc(-c2cccc(Cl)c2)no1` [Compound 138, N-(3-(3-chlorophenyl)isoxazol-5-yl)-4-(6-methyl-2,3-dihydro-1H-imidazo[1,2-b]pyrazol-1-yl)-4-oxobutanamide], the IC50 was > 10000 nM.
With `Cc1cc2n(n1)CCCN2C(=O)CCC(=O)Nc1ccc(-c2ccccc2)c(F)c1` [Compound 57, N-(2-fluorobiphenyl-4-yl)-4-(2-methyl-6,7-dihydropyrazolo[1,5-a]pyrimidin-4(5H)-yl)-4-oxobutanamide], the concentration for half-maximal inhibition (IC50) is < 100 nM.
Turning to `Cc1cc2n(n1)CCCN2C(=O)CCC(=O)Nc1oncc1-c1ccccc1` [Compound 4, 4-(2-methyl-6,7-dihydropyrazolo[1,5-a]pyrimidin-4(5H)-yl)-4-oxo-N-(4-phenylisoxazol-5-yl)butanamide], the IC50 is > 10000 nM.
With `Cc1cc2n(n1)CCCN2C(=O)CCC(=O)Nc1ccc(-c2cncnc2)nc1` [Compound 154, 4-(2-methyl-6,7-dihydropyrazolo[1,5-a]pyrimidin-4(5H)-yl)-4-oxo-N-(6-(pyrimidin-5-yl)pyridin-3-yl)butanamide], the IC50 was < 1000 nM.
On to `Cc1cc2n(n1)CCCN2C(=O)CC(C)C(=O)Nc1ccc(-c2cccnc2)nc1` (stereo not drawn) [Compound 145, N-([2,3′-bipyridin]-5-yl)-2-methyl-4-(2-methyl-6,7-dihydropyrazolo[1,5-a]pyrimidin-4(5H)-yl)-4-oxobutanamide], for which the IC50 is < 100 nM.
On to `Cc1cc2n(n1)CCCN2C(=O)CCC(=O)Nc1ccc(-c2cncc(F)c2)nn1` [Compound 103, N-(6-(5-fluoropyridin-3-yl)pyridazin-3-yl)-4-(2-methyl-6,7-dihydropyrazolo[1,5-a]pyrimidin-4(5H)-yl)-4-oxobutanamide], for which the IC50 is < 100 nM.
`Cc1cc2n(n1)CCCN2C(=O)CCC(=O)Nc1ncc(-c2ccccc2)cc1C` [Compound 91, N-(3-methyl-5-phenylpyridin-2-yl)-4-(2-methyl-6,7-dihydropyrazolo[1,5-a]pyrimidin-4(5H)-yl)-4-oxobutanamide]: the IC50 is < 5000 nM.
Turning to `Cc1cncc(-c2ncc(NC(=O)CCC(=O)N3CCCn4nc(C)cc43)cc2F)c1` [Compound 158, N-(3-fluoro-5′-methyl-[2,3′-bipyridin]-5-yl)-4-(2-methyl-6,7-dihydropyrazolo[1,5-a]pyrimidin-4(5H)-yl)-4-oxobutanamide], the IC50 is < 100 nM.
In the case of `Cc1cc2n(n1)CCCN2C(=O)CCC(=O)Nc1cc(-c2cccc(C(F)(F)F)c2)no1` [Compound 13, 4-{2-methyl-5H,6H,7H-pyrazolo[1,5-a]pyrimidin-4-yl}-4-oxo-N-{3-[3-(trifluoromethyl)phenyl]-1,2-oxazol-5-yl}butanamide] it was > 10000 nM; in that of `Cc1cc2n(n1)CCCN2C(=O)CCC(=O)Nc1cnc(-c2cccnc2)c(F)c1` [Compound 111, N-(3-fluoro-2,3′-bipyridin-5-yl)-4-(2-methyl-6,7-dihydropyrazolo[1,5-a]pyrimidin-4(5H)-yl)-4-oxobutanamide], < 100 nM; in that of `Cc1cc2n(n1)CC(C)CN2C(=O)CCC(=O)Nc1cc(F)c(-c2cccnc2)cn1` (stereo not drawn) [Compound 165, 4-(2,6-dimethyl-6,7-dihydropyrazolo[1,5-a]pyrimidin-4(5H)-yl)-N-(4-fluoro-[3,3′-bipyridin]-6-yl)-4-oxobutanamide], < 100 nM.
The value for `Cc1cc2n(n1)CCCN2C(=O)CCC(=O)Nc1cnc(-c2ccccc2)cn1` [Compound 47, 4-(2-methyl-6,7-dihydropyrazolo[1,5-a]pyrimidin-4(5H)-yl)-4-oxo-N-(5-phenylpyrazin-2-yl)butanamide] was < 100 nM.
The value for `Cc1cncc(-c2cnc(NC(=O)CCC(=O)N3CCCn4nc(C)cc43)cc2C)c1` [Compound 120, N-(4,5′-dimethyl-3,3′-bipyridin-6-yl)-4-(2-methyl-6,7-dihydropyrazolo[1,5-a]pyrimidin-4(5H)-yl)-4-oxobutanamide] was < 5000 nM; that for `Cc1cc2n(n1)CCCN2C(=O)CCC(=O)Nc1ccc(-c2cccc(C(=O)O)c2)cc1` [Compound 67, 4′-(4-(2-methyl-6,7-dihydropyrazolo[1,5-a]pyrimidin-4(5H)-yl)-4-oxobutanamido)-[1,1′-biphenyl]-3-carboxylic acid] was > 10000 nM; that for `Cc1cc2n(n1)CCCN2C(=O)CCC(=O)Nc1ccc(-c2cc(F)ccn2)cn1` [Compound 95, N-(4-fluoro-2,3′-bipyridin-6′-yl)-4-(2-methyl-6,7-dihydropyrazolo[1,5-a]pyrimidin-4(5H)-yl)-4-oxobutanamide] was < 100 nM.
Turning to `Cc1cc2n(n1)CC(C)CN2C(=O)CCC(=O)Nc1ccc(-c2ccccc2)nn1` (stereo not drawn) [Compound 139, 4-(2,6-dimethyl-6,7-dihydropyrazolo[1,5-a]pyrimidin-4(5H)-yl)-4-oxo-N-(6-phenylpyridazin-3-yl)butanamide], the IC50 was < 100 nM.
Consider `COc1ccccc1-c1ccc(NC(=O)CCC(=O)N2CCCn3nc(C)cc32)cc1` [Compound 61, N-(2′-methoxy-[1,1′-biphenyl]-4-yl)-4-(2-methyl-6,7-dihydropyrazolo[1,5-a]pyrimidin-4(5H)-yl)-4-oxobutanamide], for which the IC50 was > 10000 nM.
For `COc1ccc(-c2ccc(NC(=O)CCC(=O)N3CCCn4nc(C)cc43)cc2)cc1` [Compound 63, N-(4′-methoxy-[1,1′-biphenyl]-4-yl)-4-(2-methyl-6,7-dihydropyrazolo[1,5-a]pyrimidin-4(5H)-yl)-4-oxobutanamide], the IC50 was < 100 nM.
For the compound `Cc1cncc(-c2ccc(NC(=O)C(C)CC(=O)N3CCCn4nc(C)cc43)nc2)c1` (stereo not drawn) [Compound 152, 2-methyl-4-(2-methyl-6,7-dihydropyrazolo[1,5-a]pyrimidin-4(5H)-yl)-N-(5′-methyl-[3,3′-bipyridin]-6-yl)-4-oxobutanamide], the concentration for half-maximal inhibition (IC50) is < 100 nM.
As for `Cc1cc2n(n1)CCCN2C(=O)CCC(=O)Nc1ccc(-c2ccc(F)cc2)cc1` [Compound 66, N-(4′-fluorobiphenyl-4-yl)-4-(2-methyl-6,7-dihydropyrazolo[1,5-a]pyrimidin-4(5H)-yl)-4-oxobutanamide], the IC50 is < 1000 nM.
For `Cc1cc2n(n1)CCCN2C(=O)CCC(=O)Nc1ccc(-c2cnccn2)nc1` [Compound 166, 4-(2-methyl-6,7-dihydropyrazolo[1,5-a]pyrimidin-4(5H)-yl)-4-oxo-N-(6-(pyrazin-2-yl)pyridin-3-yl)butanamide], the IC50 is < 1000 nM.
For `Cc1cc2n(n1)CC(C)CN2C(=O)CCC(=O)Nc1ccc(-c2cncc(F)c2)nn1` (stereo not drawn) [Compound 167, 4-(2,6-dimethyl-6,7-dihydropyrazolo[1,5-a]pyrimidin-4(5H)-yl)-N-(6-(5-fluoropyridin-3-yl)pyridazin-3-yl)-4-oxobutanamide], the IC50 was < 100 nM.
Turning to `Cc1cc2n(n1)CCCN2C(=O)CCC(=O)Nc1cc(-c2cccnc2)no1` [Compound 19, 4-(2-methyl-6,7-dihydropyrazolo[1,5-a]pyrimidin-4(5H)-yl)-4-oxo-N-(3-(pyridin-3-yl)isoxazol-5-yl)butanamide], the IC50 was > 10000 nM.
In the case of `Cc1cc2n(n1)CCCN2C(=O)CCC(=O)NC1CCN(c2ccccc2)CC1` [Compound 81, 4-(2-methyl-6,7-dihydropyrazolo[1,5-a]pyrimidin-4(5H)-yl)-4-oxo-N-(1-phenylpiperidin-4-yl)butanamide] it was > 10000 nM.

Usually IC50 stands for the point on the concentration scale where inhibition reaches its midpoint.
